Earlier results, collected in the PKSmart pharmacokinetics tables (Seal et al. 2025).

Experiment: Lombardo, Berellini, Obach 2018, Drug Metab Dispos 46:1466, doi 10.1124/dmd.118.082966
Conditions: human; for MRT / Vd / clearance / half-life: in vivo, iv; for fraction unbound: plasma

Row | SMILES | MRT [h] | Vd [L/kg] | clearance [mL/min/kg] | half-life [h] | fraction unbound
1 | C[C@@H](O)C1C(=O)N2C(C(=O)O)=C(CN)S[C@H]12 (some centres not stated) | 0.5 | 0.23 | 7.67 | 0.5 | 
2 | CC(=O)N(O)CCCCCNC(=O)CCC(=O)N(O)CCCCCNC(=O)CCC(=O)N(O)CCCCCN | 2.7 | 1.35 | 8.33 | 3.05 | 
3 | COC(=O)C1[C@@H](O)CC[C@H]2CN3CCc4c([nH]c5ccccc45)[C@@H]3C[C@@H]12 (some centres not stated) | 0.5 | 0.48 | 14.6 | 1.5 | 
4 | CNC(=O)N(N(CCCl)S(C)(=O)=O)S(C)(=O)=O | 0.63 | 0.88 | 23.1 | 0.49 | 
5 | CC[C@H](O)[C@@H](C)[C@H]1O[C@@H]1C[C@@](C)(O)/C=C/C=C(\C)[C@H]1OC(=O)C[C@H](O)CC[C@@](C)(O)[C@@H](OC(=O)N2CCN(C3CCCCCC3)CC2)C=C[C@@H]1C | 3.5 | 10.1 | 47.9 | 9.2 | 
6 | COc1ccc2c(c1)[C@@H]1C[C@]1(C(=O)N1[C@@H]3CC[C@H]1CN(C)C3)Cn1c-2c(C2CCCCC2)c2ccc(C(=O)NS(=O)(=O)N(C)C)cc21 | 6.38 | 0.5 | 1.33 | 5.38 | 0.01
7 | Nc1nc(OCc2cc(Br)cs2)c2[nH]cnc2n1 |  |  | 21.6 | 2.92 | 
8 | C#Cc1cccc(Nc2ncnc3cc(OCCOC)c(OCCOC)cc23)c1 | 7.55 | 0.77 | 1.69 | 6.5 | 0.07
9 | N#C[C@H]1CC2C[C@H]2N1C(=O)C(N)C12CC3CC(CC(O)(C3)C1)C2 (some centres not stated) | 4.1 | 1.8 | 7.1 | 7.5 | 1
10 | Cc1cccc(C)c1OCC(C)N (configuration not stated) | 12 | 5.9 | 8.3 | 9.9 | 0.36
11 | O=C(CCCN1CCC(n2c(=O)[nH]c3ccccc32)CC1)c1ccc(F)cc1 | 7.5 | 3.8 | 8.3 | 5.8 | 
12 | CN1C[C@H](CNC(=O)OCc2ccccc2)C[C@@H]2c3cccc4c3c(cn4C)C[C@H]21 | 1 | 0.57 | 9.6 | 0.93 | 
13 | C[C@H]1[C@H](C)CC[C@]2(C(=O)O)CC[C@@]3(C)C(=CC[C@@H]4[C@@]5(C)CC[C@H](O)C(C)(C)[C@@H]5CC[C@]43C)[C@H]12 | 2.34 |  | 3.87 | 4.8 | 
14 | CC1(C)S[C@@H]2C(NC(=O)C(c3ccccc3)S(=O)(=O)O)C(=O)N2C1C(=O)O (some centres not stated) | 1.6 | 0.15 | 1.6 | 1.2 | 0.5
15 | CCCCCCCCOCCOC(=O)CN(CC(=O)O)c1ccccc1OCCOc1ccccc1N(CC(=O)O)CC(=O)OCCOCCCCCCCC | 1.3 | 1.1 | 14 | 3.5 | 
16 | O=C1NCC2(CCN(CCc3ccccc3)CC2)O1 | 19 | 3 | 2.6 | 14 | 
17 | CSCO[C@H]1C[C@H]2OC[C@@]2(OC(C)=O)[C@H]2[C@H](OC(=O)c3ccccc3)[C@]3(O)C[C@H](OC(=O)C(O)C(NC(=O)c4ccccc4)c4ccccc4)C(C)=C(C(OC(C)=O)C(=O)[C@]12C)C3(C)C (some centres not stated) | 29 | 11 | 6.4 | 32 | 
18 | O=C(NCCN1CCN=C1c1ccncc1)Nc1ccc(C(=O)O)cc1 | 3.52 | 0.35 | 1.67 | 4.9 | 
19 | Cc1c(O)ccc2c1OC[C@@H](c1ccc(O)cc1)[C@H]2c1ccc(O)cc1 | 2.38 | 1.2 | 8.42 | 5.3 | 
20 | CC[C@H]1C2C[C@H]3[C@@H]4N(C)c5ccccc5C45C[C@@H](C2[C@H]5O)N3[C@@H]1O (some centres not stated) | 6.8 | 4 | 9.8 | 7.3 | 0.24
21 | CCCCCCCCc1ccc(CCC(N)(CO)CO)cc1 | 189 | 17.3 | 1.53 | 144 | 0.002
22 | CC[C@H]1OC(=O)C(C)[C@@H](O[C@H]2C[C@@](C)(OC)[C@@H](O)[C@H](C)O2)[C@H](C)[C@@H](O[C@@H]2O[C@H](C)C[C@H](N(C)C)[C@H]2O)[C@](C)(O)C[C@@H](C)CN(C)[C@H](C)[C@@H](O)[C@]1(C)O (some centres not stated) | 57 | 33 | 10 | 69 | 
23 | C=CCN1CCC[C@H]1CNC(=O)c1cc(S(=O)(=O)NC)c(N)cc1OC | 7 | 2.3 | 5.47 | 4.8 | 
24 | CC(CN1c2ccccc2Sc2ccccc21)N(C)C (configuration not stated) |  |  |  |  | 0.09
